In patent publication US20090010891A1, “Sepsis Treatment Agent” (Toa Pharmaceutical Co., Ltd., priority 2007, published 2009):

Test system: sepsis patients
Assay: treatment course of sepsis in blood culture positive patients
Type: in vivo, human
Details: observation for 1 year; for Cured / Deaths: number of cases, Bio3 1 g 3 times a day where given
Method: The sepsis treatment agent was administered 3 times a day at 1 g each time using a live bacteria formulation of a mix of the three bacteria. The patients were hospitalized in a psychiatric hospital. The patients were blood culture positive which is a predictor for bacterial translocation. In 4 cases, imipenem/cilastatin (IPM/CS) was administered, and in 4 cases, latamoxef (LMOX) was given. During the observation period, CRP (C reactive protein) increased slightly, and E. coli and enterococcus and the like were detected by culturing blood. After observation for 1 year, two cases died from both groups, and two cases were cured.

| SMILES | Cured | Deaths | death rate (%) | Cured (listed as latamoxef) | Deaths (listed as latamoxef) |
| --- | --- | --- | --- | --- | --- |
| C[C@@H](O)[C@H]1C(=O)N2C(C(=O)O)=C(SCCN=CN)C[C@H]12 [Imipenem, imipenem/cilastatin] | 2 | 2 | 50 |  |  |
| CO[C@@]1(NC(=O)C(C(=O)O)c2ccc(O)cc2)C(=O)N2C(C(=O)O)=C(CSc3nnnn3C)CO[C@@H]21 (some centres unmarked) [Latamoxef, latamoxef] | 2 | 2 | 50 | two | two |
